Tests used:
neutrophils = assay: Murine air-pouch model of inflammation; assay type: in vivo; settings: depending on the dose given
[1] = Stability in human liver microsomes (NADPH-dependent); assay type: in vitro ADME; settings: 37° C., NADPH-dependent
Experimental: The compounds were incubated in duplicate with human liver microsomes at 37° C. The reaction contained microsomal protein in 100 mM potassium phosphate, 2 mM NADPH, 3 mM MgCl2, pH 7.4. A control was run for each compound omitting NADPH to detect NADPH-independent degradation. An aliquot was removed from each experimental and control reaction at 0, 10, 20, 30, and 60 minutes and mixed with an equal volume of ice-cold Stop Solution (0.3% acetic acid in acetonitrile containing haloperidol, diclofenac, or other internal standard). Stopped reactions were incubated for at least ten minutes at −20° C., and an additional volume of water was added. The samples were centrifuged to remove precipitated protein, and the supernatants were analyzed by LCMS/MS to quantitate the remaining compound. Data were converted to percent remaining by dividing by the time zero concentration value. Data were fit to a first-order decay model to determine half-life. Intrinsic clearance was calculated from the half-life and the protein concentrations: CLint=ln(2)/(t½[microsomal protein]). […] More surprising is that eliminating the ring nitrogen in SX-517 yielded a half-life even larger than that of SX-682. The results as a whole led to no SAR predictive of the surprising stability of SX-682.

[2] = Stability in human plasma; assay type: in vitro ADME; settings: for t½: 5 μM, 37° C., LC-MS/MS detection
Experimental: The in vitro stability of SX-682 and the congeners of Metabolic Stability Example 1 (FIG. 6) were further studied in human plasma. The reactions were initiated by the addition of 5 μl of a 500 μM DMSO stock solution to 495 μl of preheated plasma solution to yield a final concentration of 5 μM. The assays were performed in a heat block at 37° C. and conducted in duplicate. Samples (50 μl) were taken at 0, 30, 60, 120, 240 min and added to 150 μL acetonitrile in order to deproteinize the plasma. The samples were subjected to vortex mixing for 1 min and then centrifugation for 15 min at 14,000 rpm. The clear supernatants were analyzed by LC-MS.
The in vitro plasma half-life (t½) was calculated using the expression t½=ln(2)/b where b is the slope found in the linear fit of the natural logarithm of the fraction remaining of the parent compound vs. incubation time.

Sprague-Dawley rats = assay: Ozone rat model of pulmonary inflammation (neutrophil influx into BALF); assay type: in vivo; settings: 1 mg/kg i.v. once, 1 ppm ozone 4 hours, BALF at 24 hours
Experimental: SX-682 was assayed in an in vivo rat model of pulmonary inflammation. Activity in this model of pulmonary inflammation provides evidence that supports the use of SX-682 in the treatment of a number of pulmonary inflammatory diseases, including chronic obstructive pulmonary disease (COPD) and bronchopulmonary dysplasia (BPD). In this experiment, Sprague-Dawley rats (n=4 per cohort) were dosed intravenously only once at t=0 with either vehicle control (dimethylformamide/PEG400/saline, 40:40:20), positive inhibitor control (SX-576, 1 mg/kg) or the test compound (SX-682, 1 mg/kg). The rats were then placed in air (negative exposure group; vehicle control only) or 1 ppm ozone (positive exposure group; vehicle control, positive inhibitor control SX-576, and test compound SX-682) for 4 hours. The rats were then sacrificed at t=24 hours, and the bronchoalveolar lavage fluid (BALF) was collected. The cells were spun down, stained with Wright-Giemsa and counted. In the negative exposure group, no neutrophils were observed when stained. In the ozone exposed rats treated with vehicle however, there was a brisk influx of neutrophils of approximately 14,000 per mL of BALF (FIG. 5).

[3] = tested on: C3Tag mouse model of breast cancer; assay: C3Tag mouse model of breast cancer; assay type: in vivo; settings: SX-682 10 mg/day/mouse oral; carboplatin 50 mg/kg weekly i.p.; vehicle 18 days
From the text: The C31-T-antigen (C3Tag) mouse model is a validated model of human triple-negative basal cell breast cancer as shown by gene expression analysis (Maroulakou, 1994, Proc Natl Acad Sci, 91:11236-40, herein incorporated by reference). The expressed large T-antigen binds and inactivates the RB and p53 tumor suppressor genes, explaining why this model faithfully recapitulates human basal breast cancer, which also harbors RB and p53 inactivation. This model also has frequent K-Ras amplification and infrequent Ras mutations. Treatment regimens were started following tumor manifestation. SX-682 was given orally via medicated feed, at an approximate dose of 10 mg/day/mouse. CP was administered once weekly via intraperitoneal injection at a dose of 50 mg/kg.

For `O=C(Nc1ccc(F)cc1)c1ccc(SCc2ccccc2B(O)O)nc1` [SX-517], the activity on neutrophils (neutrophils) was “both inhibitory and agonist activity on neutrophils were achieved”, the “t½, half-life” value [1] was 6.75 h and the t½ [2] was 1.88 h. The “reduction in plasma half-life” value ([2]; relative to SX-682/SX-576) was 5 fold.

With `O=C(Nc1ccc(F)cc1)c1ccc(SCc2cc(OC(F)(F)F)ccc2B(O)O)nc1` [SX-576] the “influx of neutrophils into the lungs (BALF) vs vehicle” value (Sprague-Dawley rats) was “significantly decreased the influx of neutrophils”, the activity on neutrophils (neutrophils) was “both inhibitory and agonist activity on neutrophils were achieved” and the “t½, half-life” value [1] was 0.833 h. The t½ [2] was 8.88 h.

With `N.N.O=C([O-])C1(C(=O)[O-])CCC1.[Pt+2]` [carboplatin, reference compound] the “median survival, single agent” value [3] was 28 days.

Reference: patent US10561676B2, “Method for treating cancer using dual antagonists of CXCR1 and CXCR2” (Syntrix Biosystems, Inc., priority 2018, dated 2020)
